Legend:
[1] = tested on: LoVo-parental cells
[2] = tested on: LoVo-OXAR cells
[3] = tested on: LoVo-parental cells; conditions: single agent: compound (II) 500 μg/ml or oxaliplatin 50 μg/ml, 48 hours
[4] = tested on: LoVo-OXAR cells; conditions: single agent: compound (II) 2000 μg/ml or oxaliplatin 50 μg/ml, 48 hours
[5] = tested on: LoVo-parental cells; conditions: single agent: compound (II) 500 μg/ml or oxaliplatin 50 μg/ml, 72 hours
[6] = tested on: LoVo-OXAR cells; conditions: single agent: compound (II) 2000 μg/ml or oxaliplatin 50 μg/ml, 72 hours

Structure (SMILES): O=C1[O][Pt]2([NH][C@@H]3CCCC[C@H]3[NH]2)[O]C1=O [oxaliplatin, reference compound]
- viability of LoVo-parental cells under oxaliplatin ([1]; FIG. 2C): decreased the viability of both LoVo-parental and LoVo-OXAR cells in a dose-dependent manner
- IC50 of oxaliplatin in LoVo-parental cells ([1]; MTT assay): about 15.0 μg/ml
- viability of LoVo-OXAR cells under oxaliplatin ([2]; FIG. 2C): decreased the viability of both LoVo-parental and LoVo-OXAR cells in a dose-dependent manner
- IC50 of oxaliplatin in LoVo-OXAR cells ([2]; MTT assay): about 65 μg/ml
- migration rate of LoVo-parental cells [3]: significantly decreased
- migration rate of LoVo-OXAR cells [4]: significantly decreased
- invasion rate of LoVo-parental cells [5]: significantly decreased
- invasion rate of LoVo-OXAR cells [6]: significantly decreased
